Results from patent US11261185B2, “Bicyclic heterocyclic derivatives” (Merck Patent GmbH, priority 2015, dated 2022).

System: PDH-E1 alpha (pSer300) in HEK293T cells
Experiment: Cellular immunofluorescence assay for compound activities (PDH-E1 alpha pSer300)
Format: cell-based, human
Conditions: 5 hours incubation, Anti-PDH-E1 alpha (pSer300) immunofluorescence, read-out: IC50 (cell data)
Procedure: Cellular Assay for Determination of Compound Activities
Compound activities were determined in a cellular immunofluorescence assay. Human HEK293T cells were seeded into black 384-well plates with clear bottom and grown overnight.
Next day, test compounds were added to the wells and the plates incubated for 5 hours. Following this, cells were fixed with formaldehyde, permeabilised and blocked. The primary antibody, Anti-PDH-E1 alpha (pSer300), AP1064 (Merck Millipore) was added and incubated overnight in the plate wells. Next, cells were washed and the seconday antibody, Alexa Fluor 488, goat anti-rabbit ab (A-11008, Invitrogen) was added together with Hoechst 33258 (H3569, Invitrogen) and incubated for 1 hour in the plate wells. Finally, cells were washed and the plates were measured on the laser scanning cytometer acumen hci (TTpLabtech).
The raw data were normalized against a pharmacological inhibitor control and dose response curves were generated by plotting the percent effect values using the software package Genedata screener (Genedata).

SMILES | IC50 [µM]
C[C@@](O)(C(=O)N1CCc2c(ncn2-c2ccc(F)cc2)C1)C(F)(F)F [Compound A44, (R)-3,3,3-Trifluoro-1-[1-(4-fluoro-phenyl)-1,4,6,7-tetrahydro-imidazo[4,5-c]pyridin-5-yl]-2-hydroxy-2-methyl-propan-1-one] | 3 to 50
C[C@@](O)(C(=O)N1CCc2c(ncn2-c2ccc(Cl)cc2)C1)C(F)(F)F [Compound A45, (R)-1-[1-(4-Chloro-phenyl)-1,4,6,7-tetrahydro-imidazo[4,5-c]pyridin-5-yl]-3,3,3-trifluoro-2-hydroxy-2-methyl-propan-1-one] | 3 to 50
